Experiment in all cases: Eurofins kinase profiling
Format in all cases: biochemical

Experiment [1] concerns the target T1, ALK(h) (Homo sapiens, UniProt Q9UM73).
T1 construct: purchased Eurofins KinaseProfiler
To be noted: for remaining activity at 1 µM: read-out: residual kinase activity ALK(h). In short, it runs like this: (§1)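 Panel of 110 assays under standard conditions; these protein kinases were tested in the radiometric KinaseProfiler assay at a single 1 µM compound concentration.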

Experiment [2] has as its target T2, B-Raf(h) (Homo sapiens, UniProt P15056).
T2 construct: purchased Eurofins KinaseProfiler
To be noted: read-out: residual kinase activity B-Raf(h). In short, it runs like this:
as §1

In experiment [3] the target is T3, Blk(h) (Homo sapiens, UniProt P51451).
T3 construct: purchased Eurofins KinaseProfiler
The conditions noted are these: read-out: residual kinase activity Blk(h). In short, it runs like this: as §1

In experiment [4] the target is T4, EGFR(h) (Homo sapiens, UniProt P00533).
T4 construct: purchased Eurofins KinaseProfiler
To be noted: read-out: residual kinase activity EGFR(h). Put shortly:
as §1

For experiment [5], the target named is T5, Flt4(h) (Homo sapiens, UniProt P35916).
T5 construct: purchased Eurofins KinaseProfiler
To be noted: read-out: residual kinase activity Flt4(h). In short, it runs like this:
as §1

For experiment [6], the target named is T6, Hck(h) (Homo sapiens, UniProt P08631).
T6 construct: purchased Eurofins KinaseProfiler
To be noted: read-out: residual kinase activity Hck(h). In short, it runs like this: as §1

The target of experiment [7] is T7, PDGFRα(h) (Homo sapiens, UniProt P16234).
T7 construct: purchased Eurofins KinaseProfiler
The conditions noted are these: read-out: residual kinase activity PDGFRα(h). Put shortly:
as §1

The target of experiment [8] is T8, PKC μ(h) (Homo sapiens, UniProt Q15139).
T8 construct: purchased Eurofins KinaseProfiler
T8 sequence (Q15139 1-912): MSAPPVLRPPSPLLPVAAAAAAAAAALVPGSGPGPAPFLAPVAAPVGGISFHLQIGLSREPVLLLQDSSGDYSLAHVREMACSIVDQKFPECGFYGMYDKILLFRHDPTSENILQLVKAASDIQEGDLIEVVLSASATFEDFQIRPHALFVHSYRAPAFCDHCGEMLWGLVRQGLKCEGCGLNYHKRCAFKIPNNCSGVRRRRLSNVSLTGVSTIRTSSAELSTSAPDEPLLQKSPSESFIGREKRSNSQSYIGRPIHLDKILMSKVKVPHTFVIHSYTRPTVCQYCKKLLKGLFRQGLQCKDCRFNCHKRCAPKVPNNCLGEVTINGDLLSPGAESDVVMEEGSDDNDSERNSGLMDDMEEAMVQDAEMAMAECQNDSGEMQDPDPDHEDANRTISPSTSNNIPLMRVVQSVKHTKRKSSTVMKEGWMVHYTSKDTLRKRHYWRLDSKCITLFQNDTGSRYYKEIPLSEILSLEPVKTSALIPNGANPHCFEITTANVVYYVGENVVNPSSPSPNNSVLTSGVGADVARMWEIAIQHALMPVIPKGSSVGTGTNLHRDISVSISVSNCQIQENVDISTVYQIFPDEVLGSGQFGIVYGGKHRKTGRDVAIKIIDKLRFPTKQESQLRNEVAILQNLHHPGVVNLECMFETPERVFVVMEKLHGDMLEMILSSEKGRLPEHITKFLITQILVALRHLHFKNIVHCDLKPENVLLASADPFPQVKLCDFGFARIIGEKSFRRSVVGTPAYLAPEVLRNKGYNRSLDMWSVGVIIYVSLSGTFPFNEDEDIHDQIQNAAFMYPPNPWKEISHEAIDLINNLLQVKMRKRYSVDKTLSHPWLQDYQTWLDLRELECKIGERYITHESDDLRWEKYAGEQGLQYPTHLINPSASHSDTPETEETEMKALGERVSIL
To be noted: read-out: residual kinase activity PKC μ(h). In short, it runs like this: as §1

In experiment [9] the target is T9, PKCε(h) (Homo sapiens, UniProt Q02156).
T9 construct: purchased Eurofins KinaseProfiler
T9 sequence (Q02156 1-737): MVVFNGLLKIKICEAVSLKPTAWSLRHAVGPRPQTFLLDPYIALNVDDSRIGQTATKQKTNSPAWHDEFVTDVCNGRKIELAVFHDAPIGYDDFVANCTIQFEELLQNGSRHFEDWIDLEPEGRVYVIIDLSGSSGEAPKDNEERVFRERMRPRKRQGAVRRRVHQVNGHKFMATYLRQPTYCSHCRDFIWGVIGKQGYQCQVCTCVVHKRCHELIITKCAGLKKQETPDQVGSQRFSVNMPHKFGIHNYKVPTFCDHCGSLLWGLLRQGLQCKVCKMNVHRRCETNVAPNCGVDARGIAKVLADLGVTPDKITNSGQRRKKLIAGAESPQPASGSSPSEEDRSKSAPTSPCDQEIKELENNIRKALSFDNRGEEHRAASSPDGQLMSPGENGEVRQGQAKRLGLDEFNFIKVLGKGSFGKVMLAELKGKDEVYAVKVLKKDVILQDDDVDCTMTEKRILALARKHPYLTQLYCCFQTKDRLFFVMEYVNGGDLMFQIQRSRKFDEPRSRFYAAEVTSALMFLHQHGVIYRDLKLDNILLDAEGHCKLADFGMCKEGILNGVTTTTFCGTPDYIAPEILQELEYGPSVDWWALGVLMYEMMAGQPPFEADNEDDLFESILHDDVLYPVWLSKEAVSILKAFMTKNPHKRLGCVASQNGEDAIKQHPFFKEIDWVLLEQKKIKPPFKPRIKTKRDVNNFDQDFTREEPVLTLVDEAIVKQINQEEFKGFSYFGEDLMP
To be noted: read-out: residual kinase activity PKCε(h). In short, it runs like this: as §1

The target in experiment [10] is T10, PKCη(h) (Homo sapiens, UniProt P24723).
T10 construct: purchased Eurofins KinaseProfiler
To be noted: read-out: residual kinase activity PKCη(h). Put shortly:
as §1

Experiment [11] concerns the target T11, Ret(h) (Homo sapiens, UniProt P07949).
T11 construct: purchased Eurofins KinaseProfiler
The conditions noted are these: read-out: residual kinase activity Ret(h). In short, it runs like this:
as §1

In experiment [12] the target is T12, Tie2 (h) (Homo sapiens, UniProt Q02763).
T12 construct: purchased Eurofins KinaseProfiler
The conditions noted are these: read-out: residual kinase activity Tie2 (h). Put shortly: as §1

Each structure is given as a SMILES string.

T12 sequence (Q02763 23-1124): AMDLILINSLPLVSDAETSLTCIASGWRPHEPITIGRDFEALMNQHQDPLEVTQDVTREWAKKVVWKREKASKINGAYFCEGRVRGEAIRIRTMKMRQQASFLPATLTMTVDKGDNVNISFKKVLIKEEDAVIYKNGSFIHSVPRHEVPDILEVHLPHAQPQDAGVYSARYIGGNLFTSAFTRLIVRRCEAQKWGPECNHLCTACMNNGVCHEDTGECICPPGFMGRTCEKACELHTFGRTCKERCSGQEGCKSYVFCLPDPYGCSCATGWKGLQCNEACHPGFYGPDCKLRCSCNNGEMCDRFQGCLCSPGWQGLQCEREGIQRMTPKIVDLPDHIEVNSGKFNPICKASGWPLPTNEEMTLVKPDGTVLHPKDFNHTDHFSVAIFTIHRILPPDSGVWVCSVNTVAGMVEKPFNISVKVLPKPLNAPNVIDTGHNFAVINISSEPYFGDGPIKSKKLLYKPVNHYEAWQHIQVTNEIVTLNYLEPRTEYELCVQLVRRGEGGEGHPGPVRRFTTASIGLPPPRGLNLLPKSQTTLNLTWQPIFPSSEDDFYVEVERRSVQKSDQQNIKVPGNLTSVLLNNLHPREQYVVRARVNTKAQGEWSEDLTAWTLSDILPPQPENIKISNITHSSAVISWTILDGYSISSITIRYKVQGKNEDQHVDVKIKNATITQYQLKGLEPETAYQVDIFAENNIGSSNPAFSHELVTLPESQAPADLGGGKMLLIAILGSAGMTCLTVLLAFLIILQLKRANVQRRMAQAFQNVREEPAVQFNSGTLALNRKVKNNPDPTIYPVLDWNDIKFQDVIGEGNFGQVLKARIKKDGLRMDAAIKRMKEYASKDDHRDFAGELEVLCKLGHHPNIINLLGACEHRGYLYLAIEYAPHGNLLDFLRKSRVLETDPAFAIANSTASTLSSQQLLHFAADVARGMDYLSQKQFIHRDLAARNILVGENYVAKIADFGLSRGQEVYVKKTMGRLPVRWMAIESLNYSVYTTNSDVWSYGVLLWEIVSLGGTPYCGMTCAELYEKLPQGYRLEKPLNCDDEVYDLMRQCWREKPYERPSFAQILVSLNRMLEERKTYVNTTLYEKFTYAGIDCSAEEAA
T10 sequence (P24723 whole entry): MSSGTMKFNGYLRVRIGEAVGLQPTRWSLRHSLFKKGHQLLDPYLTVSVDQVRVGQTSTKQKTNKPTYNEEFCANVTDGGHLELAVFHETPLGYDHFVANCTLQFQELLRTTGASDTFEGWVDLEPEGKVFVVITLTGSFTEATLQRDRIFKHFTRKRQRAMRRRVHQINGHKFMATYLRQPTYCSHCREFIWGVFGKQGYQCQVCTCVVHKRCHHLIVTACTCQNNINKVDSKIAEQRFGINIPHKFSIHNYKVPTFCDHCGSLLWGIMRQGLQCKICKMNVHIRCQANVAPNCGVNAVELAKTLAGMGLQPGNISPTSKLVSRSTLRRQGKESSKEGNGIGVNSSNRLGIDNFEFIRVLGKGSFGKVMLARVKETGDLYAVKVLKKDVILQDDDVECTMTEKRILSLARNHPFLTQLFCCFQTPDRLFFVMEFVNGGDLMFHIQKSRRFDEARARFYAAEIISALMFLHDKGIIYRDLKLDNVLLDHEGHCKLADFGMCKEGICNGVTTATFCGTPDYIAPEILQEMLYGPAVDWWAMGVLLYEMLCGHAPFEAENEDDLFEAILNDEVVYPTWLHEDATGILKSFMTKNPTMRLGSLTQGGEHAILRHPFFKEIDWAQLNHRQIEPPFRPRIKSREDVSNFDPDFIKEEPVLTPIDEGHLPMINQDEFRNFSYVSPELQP
T3 sequence (P51451 whole entry): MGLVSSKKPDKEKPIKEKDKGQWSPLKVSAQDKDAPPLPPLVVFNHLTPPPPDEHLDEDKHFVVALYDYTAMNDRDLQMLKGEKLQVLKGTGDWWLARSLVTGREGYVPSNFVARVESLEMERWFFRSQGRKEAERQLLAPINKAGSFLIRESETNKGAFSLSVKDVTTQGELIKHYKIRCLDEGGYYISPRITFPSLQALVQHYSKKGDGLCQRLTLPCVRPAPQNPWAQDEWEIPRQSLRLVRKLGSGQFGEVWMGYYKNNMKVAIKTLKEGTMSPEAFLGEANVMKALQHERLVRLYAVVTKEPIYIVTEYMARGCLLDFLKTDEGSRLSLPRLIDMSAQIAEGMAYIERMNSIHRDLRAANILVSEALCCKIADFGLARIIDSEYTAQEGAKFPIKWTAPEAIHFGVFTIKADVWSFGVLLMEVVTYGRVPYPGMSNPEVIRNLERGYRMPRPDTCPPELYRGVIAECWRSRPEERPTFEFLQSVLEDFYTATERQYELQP
T2 sequence (P15056 whole entry): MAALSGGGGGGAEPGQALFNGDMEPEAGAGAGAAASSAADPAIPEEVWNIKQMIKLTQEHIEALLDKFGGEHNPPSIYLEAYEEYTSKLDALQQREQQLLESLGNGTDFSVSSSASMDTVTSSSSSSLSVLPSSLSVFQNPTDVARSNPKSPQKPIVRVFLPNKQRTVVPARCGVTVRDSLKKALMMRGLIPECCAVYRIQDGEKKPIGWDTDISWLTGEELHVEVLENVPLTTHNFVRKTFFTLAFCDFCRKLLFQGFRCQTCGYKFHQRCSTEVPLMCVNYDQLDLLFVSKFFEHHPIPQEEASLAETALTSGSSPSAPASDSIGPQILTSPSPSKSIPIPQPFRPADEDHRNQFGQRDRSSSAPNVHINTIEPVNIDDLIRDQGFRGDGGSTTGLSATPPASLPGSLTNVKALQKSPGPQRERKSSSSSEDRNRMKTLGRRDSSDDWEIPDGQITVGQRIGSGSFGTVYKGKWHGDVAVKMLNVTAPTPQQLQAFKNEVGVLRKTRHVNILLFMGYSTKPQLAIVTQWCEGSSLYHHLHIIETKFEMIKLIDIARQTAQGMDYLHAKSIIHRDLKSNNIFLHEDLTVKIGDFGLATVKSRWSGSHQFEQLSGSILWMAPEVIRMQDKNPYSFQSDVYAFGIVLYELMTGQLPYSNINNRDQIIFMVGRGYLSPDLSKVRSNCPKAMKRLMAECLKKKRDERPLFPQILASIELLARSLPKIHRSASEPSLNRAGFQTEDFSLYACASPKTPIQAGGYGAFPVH
T6 sequence (P08631 whole entry): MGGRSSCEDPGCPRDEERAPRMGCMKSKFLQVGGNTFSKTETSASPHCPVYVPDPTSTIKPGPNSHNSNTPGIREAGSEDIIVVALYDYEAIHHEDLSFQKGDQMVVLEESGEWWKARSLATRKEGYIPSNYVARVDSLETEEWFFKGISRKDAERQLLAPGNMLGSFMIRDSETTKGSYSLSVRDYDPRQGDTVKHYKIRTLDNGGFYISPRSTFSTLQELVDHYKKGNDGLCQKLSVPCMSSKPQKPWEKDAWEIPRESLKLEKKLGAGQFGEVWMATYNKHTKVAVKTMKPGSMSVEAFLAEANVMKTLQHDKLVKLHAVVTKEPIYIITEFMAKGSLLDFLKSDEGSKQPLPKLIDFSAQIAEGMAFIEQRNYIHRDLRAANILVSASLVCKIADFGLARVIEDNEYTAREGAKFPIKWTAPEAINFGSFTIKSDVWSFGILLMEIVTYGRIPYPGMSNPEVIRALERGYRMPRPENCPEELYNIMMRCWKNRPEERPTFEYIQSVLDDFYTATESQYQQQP
T4 sequence (P00533 25-1210): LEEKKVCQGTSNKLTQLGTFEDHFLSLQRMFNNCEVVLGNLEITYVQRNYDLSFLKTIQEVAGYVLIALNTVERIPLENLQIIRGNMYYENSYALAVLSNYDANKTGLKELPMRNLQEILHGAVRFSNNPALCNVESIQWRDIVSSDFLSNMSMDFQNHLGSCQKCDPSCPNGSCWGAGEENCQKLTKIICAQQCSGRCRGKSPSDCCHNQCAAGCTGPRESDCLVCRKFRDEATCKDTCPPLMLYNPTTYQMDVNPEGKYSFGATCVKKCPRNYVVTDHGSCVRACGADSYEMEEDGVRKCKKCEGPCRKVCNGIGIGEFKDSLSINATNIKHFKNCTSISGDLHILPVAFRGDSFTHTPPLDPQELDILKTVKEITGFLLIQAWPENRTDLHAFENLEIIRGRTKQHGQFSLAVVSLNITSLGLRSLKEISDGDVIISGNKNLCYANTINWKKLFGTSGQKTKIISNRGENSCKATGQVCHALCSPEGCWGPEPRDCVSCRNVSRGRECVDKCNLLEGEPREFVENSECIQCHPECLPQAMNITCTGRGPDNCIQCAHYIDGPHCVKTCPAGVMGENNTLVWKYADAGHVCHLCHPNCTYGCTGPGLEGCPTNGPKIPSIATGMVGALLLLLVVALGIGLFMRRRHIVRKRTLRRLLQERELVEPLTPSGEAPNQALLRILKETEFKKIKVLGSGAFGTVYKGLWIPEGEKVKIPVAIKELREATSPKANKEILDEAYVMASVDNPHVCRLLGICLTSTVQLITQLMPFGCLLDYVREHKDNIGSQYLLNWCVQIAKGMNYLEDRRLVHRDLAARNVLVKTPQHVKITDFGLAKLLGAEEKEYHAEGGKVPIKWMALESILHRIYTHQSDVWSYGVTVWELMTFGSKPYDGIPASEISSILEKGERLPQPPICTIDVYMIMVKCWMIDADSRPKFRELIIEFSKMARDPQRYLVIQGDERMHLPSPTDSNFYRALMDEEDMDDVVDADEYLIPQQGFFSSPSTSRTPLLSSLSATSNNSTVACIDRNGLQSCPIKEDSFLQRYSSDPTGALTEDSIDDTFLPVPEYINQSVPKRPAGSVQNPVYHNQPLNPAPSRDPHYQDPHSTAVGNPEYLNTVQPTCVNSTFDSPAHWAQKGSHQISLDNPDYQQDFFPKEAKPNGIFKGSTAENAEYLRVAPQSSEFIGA

`CNC(=O)c1cccc(C)c1Nc1nc(Nc2ccc(N3CCN(C4C5CC6CC4CC(O)(C6)C5)CC3)cc2OC)ncc1C(F)(F)F` (stereo not shown) [SJP1602, 2-((2-((4-(4-((2s,5r)-5-hydroxyadamantan-2-yl)piperazin-1-yl)-2-methoxyphenyl)amino)-5-(trifluoromethyl)pyrimidin-4-yl)amino)-N,3-dimethylbenzamide] registered an inhibition at 1 µM in experiment [1] of 72%. In addition, the remaining activity at 1 µM worked out at 28% in experiment [1]; 93% in [2]; 85% in experiment [3]; 112% in experiment [4]; 104% in [5]; 105% in [6]. Further, the remaining activity at 1 µM in experiment [7] is 97%; in experiment [8] it was 113%; in [9], 103%; in experiment [10] it was 95%; in experiment [11], 111%; in [12], 105%.
In the case of `CNC(=O)c1ccc(Nc2ncc(C(F)(F)F)c(NCc3nccnc3N(C)S(C)(=O)=O)n2)cc1` [VS-6063, Defactinib], the remaining activity at 1 µM in experiment [1] is 96%; in experiment [2], 83%; in [3], 62%; in [4], 105%; in [5], -3%; in experiment [6], 99%. The remaining activity at 1 µM in experiment [7] is 79%; in [8], 100%; in experiment [9], 98%; in [10], 104%; in experiment [11] it was 39%; in experiment [12] it was 82%.
For `CONC(=O)c1ccccc1Nc1cc(Nc2cc(C)nn2C(C)C)ncc1Cl` [GSK2256098], the remaining activity at 1 µM was 73% in experiment [1]; 99% in [2]; 117% in [3]; 98% in experiment [4]; 67% in experiment [5]; 100% in experiment [6]. For the same compound, the remaining activity at 1 µM in experiment [7] was determined as 101%; in experiment [8], 109%; in experiment [9], 112%; in [10] it was 97%; in [11], 117%; in experiment [12] it was 108%.

One may read the inhibition as the change of the read-out against control, counted positive when it falls.

Source of the values: PMC10528299, “Targeting FAK/PYK2 with SJP1602 for Anti-Tumor Activity in Triple-Negative Breast Cancer” (Current Issues in Molecular Biology, 2023).
